This experiment concerns the target T1, recombinant human MAO-B (Homo sapiens, UniProt P27338).
T1 sequence (P27338 1-520): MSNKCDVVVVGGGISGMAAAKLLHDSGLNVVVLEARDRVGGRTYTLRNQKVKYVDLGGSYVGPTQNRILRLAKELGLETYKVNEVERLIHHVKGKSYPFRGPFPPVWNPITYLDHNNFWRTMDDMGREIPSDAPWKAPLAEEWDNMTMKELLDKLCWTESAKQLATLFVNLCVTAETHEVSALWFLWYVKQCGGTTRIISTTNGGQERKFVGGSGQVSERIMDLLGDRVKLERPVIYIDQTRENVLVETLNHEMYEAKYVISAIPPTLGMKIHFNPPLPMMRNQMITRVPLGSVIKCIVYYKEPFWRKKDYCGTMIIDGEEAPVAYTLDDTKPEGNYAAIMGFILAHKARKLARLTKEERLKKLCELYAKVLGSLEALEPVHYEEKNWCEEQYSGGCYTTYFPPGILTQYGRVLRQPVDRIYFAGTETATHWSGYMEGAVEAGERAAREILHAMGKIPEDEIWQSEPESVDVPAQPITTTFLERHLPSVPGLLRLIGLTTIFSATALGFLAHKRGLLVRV
Briefly: Reversibility of MAO-B inhibition by dialysis. Format: biochemical. To be noted: dialysis experiment.

Here are results for one molecule from PMC11682371 (Scientific Reports, 2024).

Consider `C[C@H](NCc1ccc(OCc2cccc(F)c2)cc1)C(N)=O` [Safinamide], for which the “Reversibility of MAO-B inhibition” value was “reversible”.
